In brackets after ≈: the same amount, converted by molar mass. Where two headings read alike, the source gives them in different places. Square brackets hold non-standard residues; d marks the D form. Peptide text beside a SMILES is read from it. * marks the point of attachment. Lauroyl = CCCCCCCCCCCC(=O)*; 12Ado = NCCCCCCCCCCCC(=O)O; Decanoyl = CCCCCCCCCC(=O)*; Octanoyl = CCCCCCCC(=O)*; Hexanoyl = CCCCCC(=O)*; Butyryl = CCCC(=O)*
Legend:
S. aureus cells = test: Bacterial growth (CFU) of S. aureus culture grown with peptides; assay type: cell-based; details: in-vitro culture grown 2.5 hours with peptide, FIG. 5a
Procedure: (§1) RNAIII synthesis and bacterial growth: Cultures of S. aureus (20 million cells in a volume of 30 microliters) containing an expression construct for expression of the fusion protein maiii::blaZ (described in Gov, Y. et al., 2001. Peptides. 22: 1609-20 were grown for 2.5 hours with 5 microliters peptide solution or control buffer. A 5 microliter sample was taken from the cultures, diluted in saline, and streaked on LB agar plates to quantitate CFUs. The remainder of the cultures were used to determine RNAIII synthesis (beta-lactamase activity). This was performed by adding a substrate of beta-lactamase (nitrocefin), and determining OD 490 nm/OD 650 nm, as previously described (Gov, Y. et al., 2001. Peptides. 22: 1609-20).

RNAIII synthesis = RNAIII synthesis (beta-lactamase reporter, nitrocefin); assay type: cell-based, S. aureus
Procedure: as §1

[1] = test system: methicillin-resistant S. aureus (MRSA); assay type: in vivo; details: rats, MRSA challenge, explanted at 7 days
From the text: (§2) Animals: Adult male Wistar rats, 250-300 gr (I.N.R.C.A. I.R.R.C.S. animal facility, Ancona) were used, with 15 animals per experimental group.
(§3) Mammalian graft infection model: Rats were anesthetized and their hair of the back was shaved and the skin cleansed with 10 percent povidone-iodine solution. One subcutaneous pocket was made on each side of the median line by a 1.5 cm incision. Aseptically, 1 square centimeter sterile albumin-sealed Dacron™ grafts (Albograft™, Sorin Biomedica Cardio, S.p.A., Saluggia VC, Italy) were implanted into the pockets. Prior to implantation grafts were soaked for 20 minutes in sterile antibiotic solutions. The pockets were closed by means of skin clips and saline solution (1 mL) containing methicillin-resistant S. aureus (MRSA) or S. epidermidis (MRSE) at a concentration of 2×10^7 colony-forming units (CFU)/mL was inoculated onto the graft surface by using a tuberculin syringe to create a subcutaneous fluid-filled pocket. The animals were returned to individual cages and thoroughly examined daily. All grafts were explanted at 7 days following implantation.
(§4) Assessment of the infection: The explanted grafts were placed in sterile tubes, washed in sterile saline solution, placed in tubes containing 10 mL of phosphate-buffered saline solution and sonicated for 5 minutes to remove the adherent bacteria from the grafts (Balaban, N. et al, 2003. Kidney Int. 63: 340-345). Quantitation of viable staphylococci was performed by culturing serial dilutions (0.1 mL) of the bacterial suspensions on blood agar plates at 37 degrees centigrade for 48 hours. The organisms were quantitated by counting the number of colony-forming units (CFUs) per plate. The limit of detection for this method was approximately 10 CFU/mL.
(§5) Statistical analysis: MIC values are presented as the geometric mean of three separate experiments. […] Significance was accepted when the P value was less than/equal to 0.05.

[2] = test system: methicillin-resistant S. epidermidis (MRSE); assay type: in vivo; details: rats, MRSE challenge, explanted at 7 days
From the text: as §2, §3, §4, §5

S. aureus = test: MIC assayed against S. aureus (Table 1); assay type: cell-based
[3] = graft presoaked in 10 micrograms/mL peptide
[4] = graft presoaked in 20 micrograms/mL peptide
[5] = graft presoaked in 50 micrograms/mL peptide

| SMILES | MIC (minimal inhibitory concentration) (S. aureus) | other results |
| --- | --- | --- |
| CC(C)C[C@H](NC(=O)[C@H](C)N)C(=O)N[C@@H](Cc1c[nH]c2ccccc12)C(=O)N[C@@H](CCCCN)C(=O)N[C@H](C(=O)N[C@@H](CC(C)C)C(=O)N[C@@H](CC(C)C)C(=O)N[C@@H](CCCCN)C(=O)N[C@@H](CCCCN)C(=O)N[C@H](C(=O)N[C@@H](CC(C)C)C(=O)N[C@@H](CCCCN)C(=O)N[C@@H](C)C(N)=O)C(C)C)[C@@H](C)O [DD13] (H-ALWKTLLKKVLKA-NH2; N-terminus assumed) | 9 ± 3 µM (≈ 13.6 µg/mL) | Bactericidal activity (CFU counts) (S. aureus cells): potent bactericidal activity; Inhibition of RNAIII synthesis (RNAIII synthesis; FIG. 5b, at high peptide concentrations mostly attributable to cell death): more efficient than RIP; Effect on RNAIII synthesis at low peptide concentrations (RNAIII synthesis; low peptide concentrations where no cell death occurred (inset FIG. 5b)): unable to affect RNAIII synthesis; Graft bacterial load (quantitative culture) [1, 3]: 5.2×10^2±1.6×10^2 CFU/ml; Graft bacterial load (quantitative culture) [1, 4]: 4.0×10^1±1.7×10^1 CFU/ml; Graft bacterial load (quantitative culture) [1, 5]: negative quantitative cultures; Graft bacterial load (quantitative culture) [2, 3]: 5.2×10^2±1.6×10^2 CFU/ml; Graft bacterial load (quantitative culture) [2, 4]: 4.4×10^1±1.3×10^1 CFU/ml; Graft bacterial load (quantitative culture) [2, 5]: negative quantitative cultures |
| CC(=O)N[C@@H](C)C(=O)N[C@@H](CC(C)C)C(=O)N[C@@H](Cc1c[nH]c2ccccc12)C(=O)N[C@@H](CCCCN)C(=O)N[C@H](C(=O)N[C@@H](CC(C)C)C(=O)N[C@@H](CC(C)C)C(=O)N[C@@H](CCCCN)C(=O)N[C@@H](CCCCN)C(=O)N[C@H](C(=O)N[C@@H](CC(C)C)C(=O)N[C@@H](CCCCN)C(=O)N[C@@H](C)C(N)=O)C(C)C)[C@@H](C)O [SEQ ID NO: 1, C2—, —CONH2] (Ac-ALWKTLLKKVLKA-NH2) | 25 µM (≈ 38.8 µg/mL) | – |
| CCCC(=O)N[C@@H](C)C(=O)N[C@@H](CC(C)C)C(=O)N[C@@H](Cc1c[nH]c2ccccc12)C(=O)N[C@@H](CCCCN)C(=O)N[C@H](C(=O)N[C@@H](CC(C)C)C(=O)N[C@@H](CC(C)C)C(=O)N[C@@H](CCCCN)C(=O)N[C@@H](CCCCN)C(=O)N[C@H](C(=O)N[C@@H](CC(C)C)C(=O)N[C@@H](CCCCN)C(=O)N[C@@H](C)C(N)=O)C(C)C)[C@@H](C)O [SEQ ID NO: 1, C4—, —CONH2] (Butyryl-ALWKTLLKKVLKA-NH2) | 12 µM (≈ 19 µg/mL) | – |
| CCCCCC(=O)N[C@@H](C)C(=O)N[C@@H](CC(C)C)C(=O)N[C@@H](Cc1c[nH]c2ccccc12)C(=O)N[C@@H](CCCCN)C(=O)N[C@H](C(=O)N[C@@H](CC(C)C)C(=O)N[C@@H](CC(C)C)C(=O)N[C@@H](CCCCN)C(=O)N[C@@H](CCCCN)C(=O)N[C@H](C(=O)N[C@@H](CC(C)C)C(=O)N[C@@H](CCCCN)C(=O)N[C@@H](C)C(N)=O)C(C)C)[C@@H](C)O [SEQ ID NO: 1, C6—, —CONH2] (Hexanoyl-ALWKTLLKKVLKA-NH2) | 2.2 ± 0.8 µM (≈ 3.54 µg/mL) | – |
| CCCCCCCC(=O)N[C@@H](C)C(=O)N[C@@H](CC(C)C)C(=O)N[C@@H](Cc1c[nH]c2ccccc12)C(=O)N[C@@H](CCCCN)C(=O)N[C@H](C(=O)N[C@@H](CC(C)C)C(=O)N[C@@H](CC(C)C)C(=O)N[C@@H](CCCCN)C(=O)N[C@@H](CCCCN)C(=O)N[C@H](C(=O)N[C@@H](CC(C)C)C(=O)N[C@@H](CCCCN)C(=O)N[C@@H](C)C(N)=O)C(C)C)[C@@H](C)O [SEQ ID NO: 1, C8—, —CONH2] (Octanoyl-ALWKTLLKKVLKA-NH2) | 1.5 µM (≈ 2.46 µg/mL) | – |
| CCCCCCCCCC(=O)N[C@@H](C)C(=O)N[C@@H](CC(C)C)C(=O)N[C@@H](Cc1c[nH]c2ccccc12)C(=O)N[C@@H](CCCCN)C(=O)N[C@H](C(=O)N[C@@H](CC(C)C)C(=O)N[C@@H](CC(C)C)C(=O)N[C@@H](CCCCN)C(=O)N[C@@H](CCCCN)C(=O)N[C@H](C(=O)N[C@@H](CC(C)C)C(=O)N[C@@H](CCCCN)C(=O)N[C@@H](C)C(N)=O)C(C)C)[C@@H](C)O [SEQ ID NO: 1, C10—, —CONH2] (Decanoyl-ALWKTLLKKVLKA-NH2) | 1.5 µM (≈ 2.5 µg/mL) | – |
| CCCCCCCCCCCC(=O)N[C@@H](C)C(=O)N[C@@H](CC(C)C)C(=O)N[C@@H](Cc1c[nH]c2ccccc12)C(=O)N[C@@H](CCCCN)C(=O)N[C@H](C(=O)N[C@@H](CC(C)C)C(=O)N[C@@H](CC(C)C)C(=O)N[C@@H](CCCCN)C(=O)N[C@@H](CCCCN)C(=O)N[C@H](C(=O)N[C@@H](CC(C)C)C(=O)N[C@@H](CCCCN)C(=O)N[C@@H](C)C(N)=O)C(C)C)[C@@H](C)O [SEQ ID NO: 1, C12—, —CONH2] (Lauroyl-ALWKTLLKKVLKA-NH2) | 4.5 ± 1.5 µM (≈ 7.62 µg/mL) | – |
| CC(C)C[C@H](NC(=O)[C@H](C)NC(=O)CCCCCCCCCCCN)C(=O)N[C@@H](Cc1c[nH]c2ccccc12)C(=O)N[C@@H](CCCCN)C(=O)N[C@H](C(=O)N[C@@H](CC(C)C)C(=O)N[C@@H](CC(C)C)C(=O)N[C@@H](CCCCN)C(=O)N[C@@H](CCCCN)C(=O)N[C@H](C(=O)N[C@@H](CC(C)C)C(=O)N[C@@H](CCCCN)C(=O)N[C@@H](C)C(N)=O)C(C)C)[C@@H](C)O [SEQ ID NO: 1, NC12—, —CONH2] (H-[12Ado]ALWKTLLKKVLKA-NH2) | 0.75 µM (≈ 1.28 µg/mL) | – |
| CC(C)C[C@H](NC(=O)[C@H](Cc1c[nH]c2ccccc12)NC(=O)[C@H](CCCCN)NC(=O)[C@@H](NC(=O)[C@H](CC(C)C)NC(=O)[C@H](CC(C)C)NC(=O)[C@H](CCCCN)NC(=O)[C@H](CCCCN)NC(=O)[C@@H](NC(=O)[C@H](CC(C)C)NC(=O)[C@H](CCCCN)NC(=O)[C@H](C)NC(=O)CCCCCCCCCCCN)C(C)C)[C@@H](C)O)C(=O)N[C@@H](C)C(N)=O [SEQ ID NO: 2, NC12—, —CONH2] | 1.5 µM (≈ 2.56 µg/mL) | – |
| CC(C)C[C@H](NC(=O)[C@H](C)NC(=O)[C@H](CCCCN)NC(=O)CCCCCCCCCCCN)C(=O)N[C@@H](Cc1c[nH]c2ccccc12)C(=O)N[C@@H](CCCCN)C(=O)N[C@H](C(=O)N[C@@H](CC(C)C)C(=O)N[C@@H](CC(C)C)C(=O)N[C@@H](CCCCN)C(=O)N[C@@H](CCCCN)C(=O)N[C@H](C(=O)N[C@@H](CC(C)C)C(=O)N[C@@H](CCCCN)C(=O)N[C@@H](C)C(N)=O)C(C)C)[C@@H](C)O [SEQ ID NO: 3, NC12—, —CONH2] | 1.5 µM (≈ 2.75 µg/mL) | – |
| CCCCCCCCCCCC(=O)N[C@@H](C)C(=O)N[C@@H](CC(C)C)C(=O)N[C@@H](Cc1c[nH]c2ccccc12)C(=O)N[C@@H](CCCCN)C(=O)N[C@H](C(=O)N[C@@H](CC(C)C)C(=O)N[C@@H](CC(C)C)C(=O)N[C@@H](CCCCN)C(=O)N[C@@H](CCCCN)C(=O)N[C@H](C(N)=O)C(C)C)[C@@H](C)O [SEQ ID NO: 4, C12, —CONH2] (Lauroyl-ALWKTLLKKV-NH2) | 3 µM (≈ 4.14 µg/mL) | – |
| CCCCCCCCCCCC(=O)N[C@H](C(=O)N[C@@H](CC(C)C)C(=O)N[C@@H](CC(C)C)C(=O)N[C@@H](CCCCN)C(=O)N[C@@H](CCCCN)C(=O)N[C@H](C(=O)N[C@@H](CC(C)C)C(=O)N[C@@H](CCCCN)C(=O)N[C@@H](C)C(N)=O)C(C)C)[C@@H](C)O [SEQ ID NO: 5, C12, —CONH2] (Lauroyl-TLLKKVLKA-NH2) | 1.5 ± 0.75 µM (≈ 1.79 µg/mL) | – |
